Data on three molecules can be found in EP0421819A1, “Therapeutic nucleosides” (THE WELLCOME FOUNDATION LIMITED, priority 1989, dated 1991).

The structures appear in SMILES notation. Entries after “also recorded” stand apart in the source; their conditions may differ.

What all share (format): cell-based
In one assay the test system is Hepatitis B Virus (HBV). The assay can be described thus: Antiviral activity against HBV in the HBV producer cell line HepG2 2.2.15 (Dane particle DNA and intracellular replicative intermediates). The conditions noted are these: for anti-HBV activity: general statement in the description, no concentration given. How it is done:
The human HBV producer cell line of HepG2, 2.2 15, described and characterised by Sells et al., PNAS 84:1005, 1987 and J. Virol. […] This cell line was utilised in vitro to identify compounds with anti-HBV activity.
To test compounds for antiviral activity, monolayer cultures were treated with compound, 50-200 µM, for ten days. Supernatant media containing extracellular virion DNA (Dane particles), were harvested on days three, six and ten, treated with proteinase K(1 mg/mL) and sodium dodecyl sulfate (1%), and incubated at 50 °C for one hour. DNA was extracted with equal volumes of phenol followed by chloroform and then precipitated by ammonium acetate and propanol. The DNA precipitate was dissolved and collected on nitrocellulose using the procedure of Schieicher and Schuell (S & S, 10 Optical Ave., Keene, NH 03431, Publication #700, 1987), and treated as described by Southern, J. Mol. Biol. 98:503, 1975. Cells were harvested, and the intracellular DNA was obtained after cell lysis with guanidine isothiocyanate. The intracellular DNA was handled in the same manner as the extracellular DNA. After precipitation by ammonium acetate and propanol, the intracellular DNA precipitate was dissolved, cut by restriction endonuclease, Hind III, applied to agarose gel and then treated as described by Southern to determine the quantity of replicative intermediate forms. The antiviral effect of the drug was determined by measuring at least a 100-fold reduction of the amount of Dane particles extruded into the culture and a similar decrease in the intracellular replicative intermediates.

Another assay relates to HIV-1. The assay can be described thus: Anti-HIV activity by the method of Averett (J.Virol.Methods 23, 263-276). The conditions noted are these: against HIV-1; n=7; read-out: average IC₅₀. As to the method: (§1) Anti-HIV activity was determined by the method of Averett, D.R., J.Virol.Methods, 23 263-276 (1989).
The next assay relates to HIV-2. The description is as above. Particulars: against HIV-2; n=6; read-out: average IC₅₀. How it is done:
as §1

A further assay relates to HIV. The assay can be described thus: Activity against HIV infections (general statement, no method given at that place). Particulars: general statement in the description.

On to `CCCOc1nc(N)nc2c1ncn2[C@H]1CC[C@@H](CO)O1` [Compound 9, 2-Amino-6-n-propoxypurine-9-β-D-2′,3′-dideoxyribofuranoside], for which, in the assay with Hepatitis B Virus (HBV), the anti-HBV activity entry is recorded as “surprisingly high”.

Take `Nc1nc(NC2CC2)c2ncn([C@H]3CC[C@@H](CO)O3)c2n1` [Compound 34, 2-Amino-6-cyclopropylaminopurine-9-β-D-2,′3′-dideoxyribofuranoside]: the anti-HBV activity entry in the assay on Hepatitis B Virus (HBV) is listed as “surprisingly high”.

On to `Nc1nc(NCC2CC2)c2ncn([C@H]3CC[C@@H](CO)O3)c2n1` [Example 42, 2-Amino-6-(cyclopropylmethylamino)purine-9-β-D-2′,3′-dideoxy ribofuranoside], for which the IC50 with HIV-1 turned out to be 17.7 µM; in the assay on HIV-2, 13.3 µM. In addition, in the assay with HIV, the “activity against HIV infections” value is reported as “exceptionally potent activity”. For the same molecule, in the assay with Hepatitis B Virus (HBV) (at 100 µM, monolayer cultures treated for ten days), the “inhibition of HBV” value was “strong inhibition”. Also, in the assay with Hepatitis B Virus (HBV) (listed as Compound 41), the anti-HBV activity result is reported as “surprisingly high; also recorded: exceptionally potent activity”.
